We go through 48 compounds from US20020026053A1, “Novel 3-(substituted) -2- indolinones compounds and use thereof as inhibitors of protein kinase activity” (priority 1997, published 2002).

This test addresses T1, Met receptor (EGFR/Met chimeric cells, EMR) (Homo sapiens, UniProt P08581).
T1 construct: expressed in transfected cells; the other entry of the earlier key: EGFR (P00533, Epidermal growth factor receptor)
As to the kind of experiment: Met Autophosphorylation Assay. Format: biochemical. How it is done:
Met Autophosphorylation Assay
This assay determines Met tyrosine kinase activity by analyzing Met protein tyrosine kinase levels on the Met receptor.
a. HNTG (5× stock solution): Dissolve 23.83 g HEPES and 43.83 g NaCl in about 350 ml dH2O. Adjust pH to 7.2 with HCl or NaOH, add 500 ml glycerol and 10 ml Triton X-100, mix, add dH2O to 1 L total volume. To make 1 L of 1× working solution add 200 ml 5× stock solution to 800 ml dH2O, check and adjust pH as necessary, store at 4° C.
b. PBS (Dulbecco's Phosphate-Buffered Saline), Gibco Cat. # 450-1300EB (1× solution).
c. Blocking Buffer: in 500 ml dH2O place 100 g BSA, 12.1 g Tris-pH7.5, 58.44 g NaCl and 10 ml Tween-20, dilute to 1 L total volume.
d. Kinase Buffer: To 500 ml dH2O add 12.1 g TRIS (pH 7.2), 58.4 g NaCl, 40.7 g MgCl2 and 1.9 g EGTA; bring to 1 L total volume with dH2O.
e. PMSF (Phenylmethylsulfonyl fluoride), Sigma Cat. # P-7626, to 435.5 mg, add 100% ethanol to 25 ml total volume, vortex.
f. ATP (Bacterial Source), Sigma Cat. # A-7699, store powder at −20° C.; to make up solution for use, dissolve 3.31 mg in 1 ml dH2O.
g. RC-20H HRPO Conjugated Anti-Phosphotyrosine, Transduction Laboratories Cat. # E120H.
h. Pierce 1-Step Turbo™ B-ELISA (3,3′,5,5′-tetramethylbenzidine, Pierce Cat. # 34022.
i. H2SO4, add 1 ml conc.(18 N) to 35 ml dH2O.
j. TRIS HCL, Fischer Cat. # BP152-5; to 121.14 g of material, add 600 ml MilliQ H2O, adjust pH to 7.5 (or 7.2) with HCl, bring volume to 1 L with MilliQ H2O.
k. NaCl, Fischer Cat. # S271-10, make up 5M solution.
m. Na3VO4, Fischer Cat. # S454-50, to 1.8 g material add 80 ml MilliQ H2O, adjust pH to 10.0 with HCl or NaOH, boil in microwave, cool, check pH, repeat procedure until pH stable at 10.0, add MilliQ H2O to 100 ml total volume, make 1 ml aliquots and store at −80° C.
n. MgCl2, Fischer Cat. # M33-500, make up 1M solution.
o. HEPES, Fischer Cat. # BP310-500, to 200 ml MilliQ H2O, add 59.6 g material, adjust pH to 7.5, bring volume to 250 ml total, sterile filter.
p. Albumin, Bovine (BSA), Sigma Cat. # A-4503, to 30 grams material add sterile distilled water to make total volume of 300 ml, store at 4° C.
q. TBST Buffer: to approx. 900 ml dH2O in a 1 L graduated cylinder add 6.057 g TRIS and 8.766 g NaCl, when dissolved, adjust pH to 7.2 with HCl, add 1.0 ml Triton X-100 and bring to 1 L total volume with dH2O.
r. Goat Affinity purified antibody Rabbit IgG (whole molecule), Cappel Cat. # 55641.
s. Anti h-Met (C-28) rabbit polyclonal IgG antibody, Santa Cruz Chemical Cat. # SC-161.
t. Transiently Transfected EGFR/Met chimeric cells (EMR) (Komada, et al., Oncogene, 8:2381-2390 (1993).
u. Sodium Carbonate Buffer, ([…], Fischer Cat. # S495) to 10.6 g material add 800 ml MilliQ H2O, when dissolved adjust pH to 9.6 with NaOH, bring up to 1 L total volume with MilliQ H2O, filter, store at 4° C.
All of the following steps are conducted at room temperature unless it is specifically indicated otherwise. All ELISA plate washing is by rinsing 4× with TBST.
This procedure can be performed the night before or immediately prior to the start of receptor capture.
1. Quick thaw lysates in a 37° C. waterbath with a swirling motion until the last crystals disappear.
2. Lyse cell pellet with 1× HNTG containing 1 mM PMSF. Use 3 ml of HNTG per 15 cm dish of cells. Add ½ the calculated HNTG volume, vortex the tube for 1 min., add the remaining amount of HNTG, vortex for another min.
3. Balance tubes, centrifuge at 10,000× g for 10 min at 4° C.
4. Pool supernatants, remove an aliquot for protein determination.
5. Quick freeze pooled sample in dry ice/ethanol bath. This step is performed regardless of whether lysate will be stored overnight or used immediately following protein determination.
6. Perform protein determination using standard bicinchoninic acid (BCA) method (BCA Assay Reagent Kit from Pierce Chemical Cat. # 23225).
1. Coat Corning 96 well ELISA plates with 5 μg per well Goat anti-Rabbit antibody in Carbonate Buffer for a total well volume of 50 μl. Store overnight at 4° C. […]

T1 sequence (P08581 with tags, fused parts or gaps): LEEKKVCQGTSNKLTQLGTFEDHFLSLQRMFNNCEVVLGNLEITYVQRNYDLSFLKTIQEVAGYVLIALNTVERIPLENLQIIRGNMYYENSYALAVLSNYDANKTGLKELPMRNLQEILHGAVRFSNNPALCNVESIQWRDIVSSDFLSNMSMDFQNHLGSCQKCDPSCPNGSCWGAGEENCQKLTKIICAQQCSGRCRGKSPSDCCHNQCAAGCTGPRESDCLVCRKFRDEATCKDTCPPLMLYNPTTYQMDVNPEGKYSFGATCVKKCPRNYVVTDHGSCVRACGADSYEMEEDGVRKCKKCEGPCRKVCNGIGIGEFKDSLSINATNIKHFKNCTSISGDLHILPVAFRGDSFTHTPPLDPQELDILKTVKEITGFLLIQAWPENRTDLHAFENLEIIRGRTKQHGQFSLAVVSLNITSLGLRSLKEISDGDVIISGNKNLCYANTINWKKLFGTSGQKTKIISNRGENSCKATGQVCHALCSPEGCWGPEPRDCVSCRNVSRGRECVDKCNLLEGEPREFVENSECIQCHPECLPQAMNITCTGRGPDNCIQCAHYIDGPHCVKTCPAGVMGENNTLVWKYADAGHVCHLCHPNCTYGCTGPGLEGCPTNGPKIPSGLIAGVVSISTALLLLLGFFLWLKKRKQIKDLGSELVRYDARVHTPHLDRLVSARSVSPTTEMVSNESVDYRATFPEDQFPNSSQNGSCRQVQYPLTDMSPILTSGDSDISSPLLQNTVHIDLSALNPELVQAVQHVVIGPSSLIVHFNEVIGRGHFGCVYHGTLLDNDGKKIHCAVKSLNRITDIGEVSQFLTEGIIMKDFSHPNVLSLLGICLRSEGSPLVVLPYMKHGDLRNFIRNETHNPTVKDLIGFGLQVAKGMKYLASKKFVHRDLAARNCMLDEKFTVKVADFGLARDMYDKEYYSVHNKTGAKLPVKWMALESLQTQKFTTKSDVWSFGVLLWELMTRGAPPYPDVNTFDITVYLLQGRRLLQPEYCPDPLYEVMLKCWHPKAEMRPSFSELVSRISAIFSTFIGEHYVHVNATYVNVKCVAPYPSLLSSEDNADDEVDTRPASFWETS

`CCOC(=O)c1c(C)[nH]c(C=C2C(=O)Nc3c(Br)cc(Br)c(C)c32)c1C` [10718/H02]: the “Met Kinase % Inhibition (P.130)” value is 31.5%.

On to `COc1cc(Br)c(O)c(C=C2C(=O)Nc3c(Br)cc(Br)c(C)c32)c1` [10718/H03], for which the “Met Kinase % Inhibition (P.130)” value was 90.8%.

In the case of `Cc1c(Br)cc(Br)c2c1C(=Cc1ccc3ccccc3c1O)C(=O)N2` [10718/H04], the “Met Kinase % Inhibition (P.130)” value was 84.3%. For `CCOC(=O)CCc1c(C(=O)OCC)[nH]c(C=C2C(=O)Nc3c(Br)cc(Br)c(C)c32)c1CC(=O)OCC` [10718/H05], the “Met Kinase % Inhibition (P.130)” value was found to be 13.5%. Then `CCOC(=O)c1cc(C=C2C(=O)Nc3c(Br)cc(Br)c(C)c32)oc1C` [10718/H06], with 32.2%. Then `COC(=O)c1[nH]c(C)c(C=C2C(=O)Nc3c(Br)cc(Br)c(C)c32)c1C(=O)OC` [10718/H07], with 52.7%; and `Cc1c(Br)cc(Br)c2c1C(=Cc1ccc(Cl)c([N+](=O)[O-])c1)C(=O)N2` [10718/H08], with 14.4%. Then `CCOc1cccc(C=C2C(=O)Nc3c(Br)cc(Br)cc32)c1O` [10734/A02], with 51.1%; and `O=C1Nc2c(Br)cc(Br)cc2C1=Cc1cc(Cl)cc(Cl)c1O` [10734/A03], with 87.8%; and `O=C1Nc2c(Br)cc(Br)cc2C1=Cc1cc(Cl)ccc1O` [10734/A04], with 68.0%. On to `CCN(CC)c1ccc(C=C2C(=O)Nc3c(Br)cc(Br)cc32)c(O)c1` [10734/A05], for which the “Met Kinase % Inhibition (P.130)” value was 69.9%. Then `O=C1Nc2c(Br)cc(Br)cc2C1=Cc1ccc([N+](=O)[O-])cc1` [10734/A06], with 46.9%. Then `O=C1Nc2c(Br)cc(Br)cc2C1=Cc1cc(Br)cc(Br)c1O` [10734/A07], with 89.3%; and `O=C1Nc2c(Br)cc(Br)cc2C1=Cc1cccc(F)c1O` [10734/A08], with 71.5%; and `O=C1Nc2c(Br)cc(Br)cc2C1=Cc1ccc(O)c(Br)c1` [10734/A09], with 88.4%. Then `CC(C)(C)c1ccc(C=C2C(=O)Nc3c(Br)cc(Br)cc32)cc1` [10734/A10], with 55.4%; and `O=C1Nc2c(Br)cc(Br)cc2C1=Cc1ccc(Br)s1` [10734/A11], with 51.9%. For the compound `CCOc1cccc(C=C2C(=O)Nc3ccc(I)cc32)c1O` [10734/B02], the “Met Kinase % Inhibition (P.130)” value was 61.9%.

With `O=C1Nc2ccc(I)cc2C1=Cc1cc(Cl)cc(Cl)c1O` [10734/B03], the “Met Kinase % Inhibition (P.130)” value is 90.1%. Take `O=C1Nc2ccc(I)cc2C1=Cc1cc(Cl)ccc1O` [10734/B04]: the “Met Kinase % Inhibition (P.130)” value came out at 88.4%. Then `CCN(CC)c1ccc(C=C2C(=O)Nc3ccc(I)cc32)c(O)c1` [10734/B05], with 67.8%. Then `O=C1Nc2ccc(I)cc2C1=Cc1ccc([N+](=O)[O-])cc1` [10734/B06], with 91.2%. Then `O=C1Nc2ccc(I)cc2C1=Cc1cc(Br)cc(Br)c1O` [10734/B07], with 93.2%.

With `O=C1Nc2ccc(I)cc2C1=Cc1cccc(F)c1O` [10734/B08], the “Met Kinase % Inhibition (P.130)” value came out at 56.1%. Consider `O=C1Nc2ccc(I)cc2C1=Cc1ccc(O)c(Br)c1` [10734/B09], for which the “Met Kinase % Inhibition (P.130)” value is 94.3%. Then `CC(C)(C)c1ccc(C=C2C(=O)Nc3ccc(I)cc32)cc1` [10734/B10], with 82.6%; and `O=C1Nc2ccc(I)cc2C1=Cc1ccc(Br)s1` [10734/B11], with 83.6%; and `CCOc1cccc(C=C2C(=O)Nc3ccc(Br)c(C)c32)c1O` [10734/C02], with 78.6%. Then `Cc1c(Br)ccc2c1C(=Cc1cc(Cl)cc(Cl)c1O)C(=O)N2` [10734/C03], with 88.2%.

On to `Cc1c(Br)ccc2c1C(=Cc1cc(Cl)ccc1O)C(=O)N2` [10734/C04], for which the “Met Kinase % Inhibition (P.130)” value amounted to 90.7%. Then `CCN(CC)c1ccc(C=C2C(=O)Nc3ccc(Br)c(C)c32)c(O)c1` [10734/C05], with 52.7%; and `Cc1c(Br)ccc2c1C(=Cc1ccc([N+](=O)[O-])cc1)C(=O)N2` [10734/C06], with 48.3%. Consider `Cc1c(Br)ccc2c1C(=Cc1cc(Br)cc(Br)c1O)C(=O)N2` [10734/C07], for which the “Met Kinase % Inhibition (P.130)” value amounted to 96.8%. Then `Cc1c(Br)ccc2c1C(=Cc1cccc(F)c1O)C(=O)N2` [10734/C08], with 93.2%; and `Cc1c(Br)ccc2c1C(=Cc1ccc(O)c(Br)c1)C(=O)N2` [10734/C09], with 88.6%. Then `Cc1c(Br)ccc2c1C(=Cc1ccc(C(C)(C)C)cc1)C(=O)N2` [10734/C10], with 11.6%. Then `Cc1c(Br)ccc2c1C(=Cc1ccc(Br)s1)C(=O)N2` [10734/C11], with 23.9%; and `CCOc1cccc(C=C2C(=O)Nc3ccc(S(=O)(=O)NC)cc32)c1O` [10734/D02], with 46.0%; and `CNS(=O)(=O)c1ccc2c(c1)C(=Cc1cc(Cl)cc(Cl)c1O)C(=O)N2` [10734/D03], with 78.6%. `CNS(=O)(=O)c1ccc2c(c1)C(=Cc1cc(Cl)ccc1O)C(=O)N2` [10734/D04]: the “Met Kinase % Inhibition (P.130)” value came to 46.9%. Then `CCN(CC)c1ccc(C=C2C(=O)Nc3ccc(S(=O)(=O)NC)cc32)c(O)c1` [10734/D05], with 55.0%. Then `CNS(=O)(=O)c1ccc2c(c1)C(=Cc1ccc([N+](=O)[O-])cc1)C(=O)N2` [10734/D06], with 30.6%. In the case of `CNS(=O)(=O)c1ccc2c(c1)C(=Cc1cc(Br)cc(Br)c1O)C(=O)N2` [10734/D07], the “Met Kinase % Inhibition (P.130)” value came to 92.0%.

`CNS(=O)(=O)c1ccc2c(c1)C(=Cc1cccc(F)c1O)C(=O)N2` [10734/D08]: the “Met Kinase % Inhibition (P.130)” value turned out to be 49.8%.

Take `CNS(=O)(=O)c1ccc2c(c1)C(=Cc1ccc(O)c(Br)c1)C(=O)N2` [10734/D09]: the “Met Kinase % Inhibition (P.130)” value came out at 88.0%.

As to `CNS(=O)(=O)c1ccc2c(c1)C(=Cc1ccc(C(C)(C)C)cc1)C(=O)N2` [10734/D10], the “Met Kinase % Inhibition (P.130)” value amounted to 20.6%. `CNS(=O)(=O)c1ccc2c(c1)C(=Cc1ccc(Br)s1)C(=O)N2` [10734/D11]: the “Met Kinase % Inhibition (P.130)” value was 33.9%. Then `CCOc1cccc(C=C2C(=O)Nc3ccc(S(=O)(=O)Nc4ccc(C(F)(F)F)cc4)cc32)c1O` [10734/E02], with 66.9%.
